According to patent US20110154513A1, “PROBE FOR VISUALIZING NEURAL ACTIVITY” (University of Toyama, priority 2008, published 2011):

Key:
hippocampal nerve cells = assay: Luminescence (photon count) of probes expressed in cultured hippocampal nerve cells after stimulation; type: cell-based, rat
Procedure: On day 18 of pregnancy, a rat fetus was taken out of a pregnant rat, and the brain was separated therefrom in cold PBS. Furthermore, brain slices containing hippocampal nerve cells were separated from the cerebrum. The separated hippocampal cells were reacted with 0.125% trypsin (protease) at room temperature for 20 minutes in a test tube such that adhesion factors on the cell surface were degraded to attenuate cell-cell adhesion. Then, the test tube was left standing for trypsin removal. After precipitation of the brain slices in the bottom of the test tube, the trypsin solution as a supernatant was removed by aspiration. Subsequently, a DMEM medium containing 10% serum was added to the test tube. The test tube was left standing again, and the supernatant was removed. The brain slices were dissociated into individual cells by repeating approximately 10 times aspiration and dropping using a plastic dropper. Then, the cells were cultured in a plastic dish.
On culture day 4, the plasmid encoding the fusion protein 1 of Example 1 was gene-transferred into the cells. The gene transfer method was performed using Lipofectamine 2000 in the same way as in the HEK293 cells. Two days after the gene transfer, the medium was replaced by an Opti-MEM medium (Invitrogen Corp.) containing 0.5 mM luciferin EF (Promega Corp.), a luminescent substrate of luciferase. The luminescence intensity was measured using a luminometer AEQUORIA (Hamamatsu Photonics K.K.). This apparatus counts the number of photons generated from cells during culture placed together with a plastic dish in a dark box. The measurement was performed for 1 consecutive hour, and the luminescence intensity at 1-minute intervals was plotted on the ordinate of a graph. Immediately before the measurement, the cells were stimulated with forskolin, glutamate, KCl, or the like.

polymerized actin = assay: Rhodamine-phalloidin staining of polymerized actin in HEK293T cells; type: cell-based; conditions: varying concentrations of inhibitor
Procedure: FIG. 8 is a photograph showing results of Example 9. The photograph is an image of polymerized actin stained with rhodamine-phalloidin in the presence of varying concentrations of a polymerization inhibitor;
HEK293T cells were treated with latrunculin A and then fixed in 4% paraformaldehyde, and only polymerized actin was stained using F-Actin Visualization Biochem Kit (Cosmo Bio Co., Ltd.).
An image of polymerized actin stained with rhodamine-phalloidin in the presence of varying concentrations of the polymerization inhibitor was confirmed.

actin polymerization = assay: Luminescence of IRES-linked split luciferase-actin fusion proteins in HEK293 cells with actin polymerization inhibitor; type: cell-based; conditions: inhibitor added 3 hours before measurement, varying concentrations
Source text: FIG. 7 is a graph showing results of Example 8. The graph depicts the relationship between an actin polymerization inhibitor concentration and luminescence from split luciferase-actin fusion proteins bound via an IRES sequence and expressed in HEK293 cells;
For preparing a form suitable for transgenic mouse preparation, plasmids were constructed for a fusion protein comprising two fusion proteins bound via an IRES sequence (the resultant fusion protein is referred to as a fusion protein 13: LucN-Actin-IRES-LucC-actin). LucC-Actin and LucN-Actin are thereby translated from one mRNA and expressed in cells. The gene transfer was performed in the same way as in Example 1. Moreover, in this experiment, an actin polymerization inhibitor latrunculin A was added into a medium 3 hours before luminescence measurement. Moreover, the luminescence measurement used a luminometer AEQUORIA (Hamamatsu Photonics K.K.).
This is the evidence that the luminescence of the prepared protein serves as an index for actin polymerization.

Compound: [Cl-].[K+] [KCl, potassium chloride]
- increase in luminescence intensity by KCl stimulation (hippocampal nerve cells; fusion protein 1 expressed in nerve cells, compared to before addition of KCl): approximately 6 times
- effect of stimulation on luminescence intensity (hippocampal nerve cells; nerve cells expressing fusion protein 5, 50 mM KCl, alone or with additive): increases the luminescence intensity

Compound: C/C1=C/C(=O)O[C@@H]2C[C@@H](CC[C@H](C)/C=C\C=C\CC1)O[C@@](O)([C@@H]1CSC(=O)N1)C2 [latrunculin A]
- polymerized actin (rhodamine-phalloidin staining) (polymerized actin): decreased in a concentration-dependent manner
- luminescence of split luciferase-actin probe (actin polymerization): decreased in a concentration-dependent manner

Compound: wild-type luciferase: wild-type firefly luciferase (Promega Corp.), control experiment
- response of luminescence to KCl (hippocampal nerve cells; probe expressed in nerve cells, KCl stimulation): does not exhibit the response to KCl
